Read-outs that look alike come from different tables or passages of the source.
Key:
ERα in MCF7 cells = ERα in MCF7 cells (Homo sapiens (Human), UniProt P03372); test: Test C: estrogen receptor degradation activity, ERα in cell western assay in MCF7 cells; type: cell-based; conditions: for DC50: 4 hours post compound addition, ERα in cell western, read-out: Degradation IC50; for % Degradation at 3 μM: 4 hours, relative to fulvestrant
Procedure, shortened: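 In-cell western: ERα level (green) against DNA stain Syto-64 (red) by integrated intensity. MCF7 cells in hormone-depleted medium exposed 4 h to compound at 3-0.000018 μM final (1:5 series); fulvestrant 0.1 μM as positive control.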

[1] = test system: MCF7 cells (breast tumor cells) WT; test: Test B: cell proliferation/viability assay (CellTiter-Glo) on MCF7 WT; type: cell-based; conditions: 7 days of compound exposure
Procedure, shortened: (§1)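 Seven-day compound exposure, 9 concentrations from 3 to 0.000001 μM, in phenol red-free medium with 5% charcoal-stripped serum. ER Tyr537Ser and Asp538Gly lines derive from transfected MCF7 selected to grow without estradiol. Viability from CellTiter-Glo luminescence, background-corrected, as percent of untreated.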

[2] = molecular target: His6-ERα298-554 Y537S mutant (ERα ligand-binding domain) (Homo sapiens (Human), UniProt P03372, Y537S); test: Test A: biochemical antagonist activity, LanthaScreen TR-FRET ERα coactivator assay, Y537S mutant; conditions: read-out: Antagonism Y537S IC50
His6-ERα298-554 Y537S mutant (ERα ligand-binding domain), sequence (P03372 298-554 Y537S): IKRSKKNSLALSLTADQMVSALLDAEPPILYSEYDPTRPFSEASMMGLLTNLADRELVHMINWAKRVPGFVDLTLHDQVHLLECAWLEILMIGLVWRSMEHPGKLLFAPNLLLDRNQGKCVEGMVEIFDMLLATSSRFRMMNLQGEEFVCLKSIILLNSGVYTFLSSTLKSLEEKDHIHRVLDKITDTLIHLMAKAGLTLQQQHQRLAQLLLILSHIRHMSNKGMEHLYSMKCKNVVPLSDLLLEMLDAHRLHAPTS
Procedure, shortened: (§2)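 His6-ERα LBD (0.5 nM) with 0.5 nM Tb-anti-His6 antibody, 250 nM PGC1a peptide and 3 nM (or 10 nM) estradiol in 100 mM potassium phosphate pH 7.4 with 5 mM DTT, incubated overnight at room temperature with compound.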

[3] = molecular target: His6-ERα298-554 WT (ERα ligand-binding domain) (Homo sapiens (Human), UniProt P03372); test: Test A: biochemical antagonist activity, LanthaScreen TR-FRET ERα coactivator assay, WT; conditions: read-out: Antagonism WT IC50
His6-ERα298-554 WT (ERα ligand-binding domain), sequence (P03372 298-554): as the sequence (P03372 298-554 Y537S) above, with S240Y counted along it
Procedure, shortened: as §2

[4] = molecular target: His6-ERα298-554 D538G mutant (ERα ligand-binding domain) (Homo sapiens (Human), UniProt P03372, D538G); test: Test A: biochemical antagonist activity, LanthaScreen TR-FRET ERα coactivator assay, D538G mutant; conditions: read-out: Antagonism D538G IC50
His6-ERα298-554 D538G mutant (ERα ligand-binding domain), sequence (P03372 298-554 D538G): as the sequence (P03372 298-554 Y537S) above, with S240Y, D241G counted along it
Procedure, shortened: as §2

[5] = test system: MCF7 cells expressing mutant estrogen receptor Tyr 537 Ser; test: Test B: cell proliferation/viability assay (CellTiter-Glo) on MCF7 Tyr 537 Ser mutant; type: cell-based; conditions: MCF7 cells expressing ER Tyr 537 Ser mutant, 7 days of compound exposure, read-out: proliferation MCF7 Y537S IC50
Procedure, shortened: as §1

[6] = test system: MCF7 cells expressing mutant estrogen receptor Asp 538 Gly; test: Test B: cell proliferation/viability assay (CellTiter-Glo) on MCF7 Asp 538 Gly mutant; type: cell-based; conditions: MCF7 cells expressing ER Asp 538 Gly mutant, 7 days of compound exposure, read-out: proliferation MCF7 D538G IC50
Procedure, shortened: as §1

[7] = asterisk (*): protocol using 10 nM estradiol

ERα in MCF7 cells, sequence (P03372 whole entry): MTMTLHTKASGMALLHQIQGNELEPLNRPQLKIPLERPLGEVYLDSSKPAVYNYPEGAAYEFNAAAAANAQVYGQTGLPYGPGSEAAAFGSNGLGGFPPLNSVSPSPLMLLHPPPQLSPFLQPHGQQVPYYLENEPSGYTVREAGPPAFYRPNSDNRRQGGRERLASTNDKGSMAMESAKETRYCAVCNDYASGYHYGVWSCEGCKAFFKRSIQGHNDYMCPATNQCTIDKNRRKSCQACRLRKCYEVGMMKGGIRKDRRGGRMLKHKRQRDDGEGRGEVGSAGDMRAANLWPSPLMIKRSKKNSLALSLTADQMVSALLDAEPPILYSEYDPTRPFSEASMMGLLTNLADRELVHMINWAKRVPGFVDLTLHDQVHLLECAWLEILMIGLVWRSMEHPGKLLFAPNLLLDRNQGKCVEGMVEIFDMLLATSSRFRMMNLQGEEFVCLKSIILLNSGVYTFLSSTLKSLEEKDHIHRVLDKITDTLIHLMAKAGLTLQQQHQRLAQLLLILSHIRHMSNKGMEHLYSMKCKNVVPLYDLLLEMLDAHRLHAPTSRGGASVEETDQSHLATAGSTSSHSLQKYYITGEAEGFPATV

| SMILES | DC50 (ERα in MCF7 cells) [nM] | % Degradation at 3 μM (ERα in MCF7 cells) [%] | IC50 ([1]; Homo sapiens, MCF7, 168 h) [nM] | IC50 [2, 7] [nM] | IC50 [3, 7] [nM] | IC50 [4, 7] [nM] | IC50 ([5]; Homo sapiens, MCF7, 168 h) [nM] | IC50 ([6]; Homo sapiens, MCF7, 168 h) [nM] | IC50 ([2]; protocol with 3 nM estradiol) [nM] | IC50 ([3]; protocol with 3 nM estradiol) [nM] | IC50 ([4]; protocol with 3 nM estradiol) [nM] | IC50 [1] [nM] | IC50 [5] [nM] | IC50 [6] [nM] |
| --- | --- | --- | --- | --- | --- | --- | --- | --- | --- | --- | --- | --- | --- | --- |
| Oc1ccc2c(c1)SCC(c1ccc3ncccc3c1)=C2c1ccc(O[C@H]2CCN(CCCF)C2)cc1 [Example 67, 4-[4-[(3S)-1-(3-fluoropropyl)pyrrolidin-3-yl]oxyphenyl]-3-(6-quinolyl)-2H-thiochromen-7-ol] | 1 | 90 | 12 | 1280 | 120 | 1810 | 86 | 16 | – | – | – | – | – | – |
| Oc1cc2c(cc1Cl)C(c1ccc(O[C@H]3CCN(CCCF)C3)cc1)=C(c1ccc3c(c1)CCN3)CCO2 [Example 143, 7-chloro-5-[4-[(3S)-1-(3-fluoropropyl)pyrrolidin-3-yl]oxyphenyl]-4-indolin-5-yl-2,3-dihydro-1-benzoxepin-8-ol] | 14 | 74 | 24 | – | – | – | 357 | 63 | 4000 | 464 | 4000 | – | – | – |
| Oc1ccc2c(c1)SCC(c1ccc3c(c1)OC(F)(F)O3)=C2c1ccc(O[C@H]2CCN(CCCF)C2)cc1 [Example 31, 3-(2,2-difluoro-1,3-benzodioxol-5-yl)-4-[4-[(3S)-1-(3-fluoropropyl)pyrrolidin-3-yl]oxyphenyl]-2H-thiochromen-7-ol] | 0.7 | 86 | 0.4 | – | – | – | 6 | 1 | 59 | 5 | 101 | – | – | – |
| Cc1ccc(C2=C(c3ccc(O[C@H]4CCN(CCCF)C4)cc3)c3ccc(O)cc3SC2)c(F)c1F [Example 64, 3-(2,3-difluoro-4-methyl-phenyl)-4-[4-[(3S)-1-(3-fluoropropyl)pyrrolidin-3-yl]oxyphenyl]-2H-thiochromen-7-ol] | 0.2 | 81 | 1 | 204 | 24 | 492 | 5 | 0.7 | – | – | – | – | – | – |
| CCOc1ccc(C2=C(c3ccc(N[C@H]4CCN(CCCF)C4)cc3)c3ccc(O)cc3CCC2)c(F)n1 [Example 86, 6-(6-ethoxy-2-fluoro-3-pyridyl)-5-[4-[[(3S)-1-(3-fluoropropyl)pyrrolidin-3-yl]amino]phenyl]-8,9-dihydro-7H-benzo[7]annulen-2-ol] | 0.5 | 95 | 0.2 | 5 | 0.5 | 7 | 1 | 0.2 | – | – | – | – | – | – |
| Oc1ccc2c(c1)OCCC(c1ccc(Cl)cc1Cl)=C2c1ccc(O[C@H]2CCN(CCCF)C2)cc1 [Example 102, 4-(2,4-dichlorophenyl)-5-[4-[(3S)-1-(3-fluoropropyl)pyrrolidin-3-yl]oxyphenyl]-2,3-dihydro-1-benzoxepin-8-ol] | 2 | 87 | 0.5 | – | – | – | 5 | 0.8 | 51 | 12 | 106 | – | – | – |
| Cc1ccc(C2=C(c3ccc(O[C@H]4CCN(CCCF)C4)cc3)c3ccc(O)cc3[S+]([O-])C2)c(F)c1 (single isomer, unassigned) [Example 71] | 11 | 75 | – | > 4000 | 2740 | > 4000 | – | – | – | – | – | 12 | 414 | 88 |
| Cc1noc(C)c1C1=C(c2ccc(O[C@H]3CCN(CCCF)C3)cc2)c2ccc(O)cc2SCC1 [Example 219, 4-(3,5-dimethylisoxazol-4-yl)-5-[4-[(3S)-1-(3-fluoropropyl)pyrrolidin-3-yl]oxyphenyl]-2,3-dihydro-1-benzothiepin-8-ol] | 0.2 | 90 | 0.1 | 149 | 12 | 233 | 2 | 0.4 | – | – | – | – | – | – |
| CCOc1ccc(C2=C(c3ccc(O[C@H]4CCN(CCCF)C4)cc3)c3ccc(O)cc3SCC2)c(F)c1 [Example 196, 4-(4-ethoxy-2-fluoro-phenyl)-5-[4-[(3S)-1-(3-fluoropropyl)pyrrolidin-3-yl]oxyphenyl]-2,3-dihydro-1-benzothiepin-8-ol] | 0.3 | 93 | 0.4 | 36 | 3 | 63 | 6 | 1 | – | – | – | – | – | – |
| Cc1ccc(C2=C(c3ccc(O[C@H]4CCN(CCCF)C4)cc3)c3ccc(O)c(F)c3OCC2)c(F)c1 [Example 106, 9-fluoro-4-(2-fluoro-4-methyl-phenyl)-5-[4-[(3S)-1-(3-fluoropropyl)pyrrolidin-3-yl]oxyphenyl]-2,3-dihydro-1-benzoxepin-8-ol] | 0.5 | 90 | 0.7 | – | – | – | 12 | 3 | 16 | 5 | 31 | – | – | – |
| Oc1ccc2c(c1)OCCC(c1ccc3cc[nH]c3c1)=C2c1ccc(O[C@H]2CCN(CCCF)C2)cc1 [Example 103, 5-[4-[(3S)-1-(3-fluoropropyl)pyrrolidin-3-yl]oxyphenyl]-4-(1H-indol-6-yl)-2,3-dihydro-1-benzoxepin-8-ol] | 3 | 89 | 0.3 | – | – | – | 4 | 1 | 101 | 38 | 252 | – | – | – |
| Oc1ccc2c(c1)OCCC(c1ccc3c(c1)NCC3)=C2c1ccc(O[C@H]2CCN(CCCF)C2)cc1 [Example 116, 5-[4-[(3S)-1-(3-fluoropropyl)pyrrolidin-3-yl]oxyphenyl]-4-indolin-6-yl-2,3-dihydro-1-benzoxepin-8-ol] | 2 | 88 | 6 | – | – | – | 150 | 17 | 86 | 31 | 120 | – | – | – |
| Oc1ccc2c(c1)OCCC(c1ccc(Cl)cc1F)=C2c1ccc(O[C@H]2CCN(CCCF)C2)cc1 [Example 98, 4-(4-chloro-2-fluoro-phenyl)-5-[4-[(3S)-1-(3-fluoropropyl)pyrrolidin-3-yl]oxyphenyl]-2,3-dihydro-1-benzoxepin-8-ol] | 0.5 | 93 | 0.5 | – | – | – | 5 | 2 | 40 | 14 | 106 | – | – | – |

— patent US11149031B2, “Substituted N-(3-fluoropropyl)-pyrrolidine compounds, processes for their preparation and therapeutic uses thereof” (SANOFI, priority 2016, dated 2021)
